Experimental data published in patent publication US20240246942A1, “KINASE INHIBITORS FOR THE TREATMENT OF NEURODEGENERATIVE DISEASES” (priority 2020, published 2024).
Read-outs that look alike come from different tables or passages of the source.

Columns and labels:
Assay in all cases: biochemical
[1] = target: T1, panel of 374 wild-type kinases (Homo sapiens, UniProt Q9HAZ1); conditions: read-out: % Enzyme Activity (relative to DMSO controls), CLK4
T1 construct: purchased Reaction Biology Corporation

[2] = target: T2, panel of 374 wild-type kinases (Homo sapiens, UniProt P45985); conditions: read-out: % Enzyme Activity (relative to DMSO controls), MKK4
T2 construct: purchased Reaction Biology Corporation
T2 sequence (P45985 1-399): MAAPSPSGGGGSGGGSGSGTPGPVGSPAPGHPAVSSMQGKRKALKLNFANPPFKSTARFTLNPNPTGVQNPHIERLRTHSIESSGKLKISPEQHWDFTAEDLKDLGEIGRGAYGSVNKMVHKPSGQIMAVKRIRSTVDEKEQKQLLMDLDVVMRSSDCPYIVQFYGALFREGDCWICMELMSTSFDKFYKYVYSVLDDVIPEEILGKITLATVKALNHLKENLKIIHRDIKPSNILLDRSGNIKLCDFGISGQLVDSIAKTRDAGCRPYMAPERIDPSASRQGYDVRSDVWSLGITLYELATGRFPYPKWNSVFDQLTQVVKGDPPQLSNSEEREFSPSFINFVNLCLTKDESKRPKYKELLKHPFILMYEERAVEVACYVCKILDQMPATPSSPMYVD

[3] = target: T3, panel of 374 wild-type kinases (Homo sapiens, UniProt Q16513)
T3 construct: purchased Reaction Biology Corporation

[4] = target: T4, panel of 374 wild-type kinases (Homo sapiens, UniProt P51957); conditions: read-out: % Enzyme Activity (relative to DMSO controls), NEK4
T4 construct: purchased Reaction Biology Corporation

[5] = target: T5, panel of 374 wild-type kinases (Homo sapiens, UniProt P49137); conditions: read-out: % Enzyme Activity (relative to DMSO controls), MAPKAPK2
T5 construct: purchased Reaction Biology Corporation

[6] = target: T6, panel of 374 wild-type kinases (Homo sapiens, UniProt P51451); conditions: read-out: % Enzyme Activity (relative to DMSO controls), BLK
T6 construct: purchased Reaction Biology Corporation

[7] = target: T7, panel of 374 wild-type kinases (Homo sapiens, UniProt Q96L34); conditions: read-out: % Enzyme Activity (relative to DMSO controls), MARK4
T7 construct: purchased Reaction Biology Corporation
T7 sequence (Q96L34 1-752): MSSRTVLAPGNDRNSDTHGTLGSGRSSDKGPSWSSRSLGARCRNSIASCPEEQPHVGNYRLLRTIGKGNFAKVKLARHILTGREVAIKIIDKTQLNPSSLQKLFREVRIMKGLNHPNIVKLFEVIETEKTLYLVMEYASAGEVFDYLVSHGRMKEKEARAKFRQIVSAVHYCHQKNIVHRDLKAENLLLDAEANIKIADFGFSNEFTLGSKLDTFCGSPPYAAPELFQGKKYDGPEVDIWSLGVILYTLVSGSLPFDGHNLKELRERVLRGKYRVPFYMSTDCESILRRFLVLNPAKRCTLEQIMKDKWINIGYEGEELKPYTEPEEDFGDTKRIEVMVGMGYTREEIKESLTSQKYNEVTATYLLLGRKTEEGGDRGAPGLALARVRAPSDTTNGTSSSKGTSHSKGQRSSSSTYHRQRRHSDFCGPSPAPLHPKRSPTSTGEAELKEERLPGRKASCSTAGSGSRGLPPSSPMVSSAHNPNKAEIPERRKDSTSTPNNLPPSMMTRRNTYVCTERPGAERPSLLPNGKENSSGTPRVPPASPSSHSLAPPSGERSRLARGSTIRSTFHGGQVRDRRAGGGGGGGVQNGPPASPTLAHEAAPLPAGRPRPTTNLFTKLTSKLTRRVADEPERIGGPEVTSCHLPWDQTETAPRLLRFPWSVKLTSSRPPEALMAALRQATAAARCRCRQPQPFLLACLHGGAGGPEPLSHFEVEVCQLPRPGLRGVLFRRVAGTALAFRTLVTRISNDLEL

[8] = target: T8, panel of 374 wild-type kinases (Homo sapiens, UniProt P52564); conditions: read-out: % Enzyme Activity (relative to DMSO controls), MKK6
T8 construct: purchased Reaction Biology Corporation
T8 sequence (P52564 1-334): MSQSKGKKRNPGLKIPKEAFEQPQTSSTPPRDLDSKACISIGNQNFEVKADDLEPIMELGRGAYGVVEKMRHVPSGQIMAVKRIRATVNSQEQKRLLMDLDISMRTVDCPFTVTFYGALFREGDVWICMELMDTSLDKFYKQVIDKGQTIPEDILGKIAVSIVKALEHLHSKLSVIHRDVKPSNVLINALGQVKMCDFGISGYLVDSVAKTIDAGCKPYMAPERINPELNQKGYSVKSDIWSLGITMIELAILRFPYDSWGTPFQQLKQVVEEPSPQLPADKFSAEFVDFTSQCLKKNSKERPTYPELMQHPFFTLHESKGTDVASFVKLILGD

[9] = target: T9, panel of 374 wild-type kinases (Homo sapiens, UniProt P06241); conditions: read-out: % Enzyme Activity (relative to DMSO controls), FYN
T9 construct: purchased Reaction Biology Corporation

[10] = target: T10, panel of 374 wild-type kinases (Homo sapiens, UniProt Q9HBY8); conditions: read-out: % Enzyme Activity (relative to DMSO controls), kinase SGK2
T10 construct: purchased Reaction Biology Corporation

[11] = target: T11, panel of 374 wild-type kinases (Homo sapiens, UniProt Q14680); conditions: read-out: % Enzyme Activity (relative to DMSO controls), MELK
T11 construct: purchased Reaction Biology Corporation

[12] = target: T12, panel of 374 wild-type kinases (Homo sapiens, UniProt P28482); conditions: read-out: % Enzyme Activity (relative to DMSO controls), ERK2/MAPK1
T12 construct: purchased Reaction Biology Corporation

[13] = target: T13, panel of 374 wild-type kinases (Homo sapiens, UniProt P43405); conditions: read-out: % Enzyme Activity (relative to DMSO controls), kinase SYK
T13 construct: purchased Reaction Biology Corporation

T1 sequence (Q9HAZ1 whole entry): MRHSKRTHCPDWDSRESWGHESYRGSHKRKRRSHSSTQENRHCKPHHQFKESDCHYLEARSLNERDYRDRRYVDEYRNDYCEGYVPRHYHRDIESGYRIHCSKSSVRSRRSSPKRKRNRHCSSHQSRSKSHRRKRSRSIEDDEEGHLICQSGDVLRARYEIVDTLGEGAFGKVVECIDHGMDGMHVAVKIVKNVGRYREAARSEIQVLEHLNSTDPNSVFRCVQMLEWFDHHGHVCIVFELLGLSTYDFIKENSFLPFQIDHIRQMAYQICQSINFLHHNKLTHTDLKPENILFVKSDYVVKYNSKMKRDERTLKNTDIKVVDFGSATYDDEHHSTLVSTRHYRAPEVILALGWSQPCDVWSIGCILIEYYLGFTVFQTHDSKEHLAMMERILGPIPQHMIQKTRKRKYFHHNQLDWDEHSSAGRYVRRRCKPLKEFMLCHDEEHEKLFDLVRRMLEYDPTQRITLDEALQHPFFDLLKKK
T10 sequence (Q9HBY8 whole entry): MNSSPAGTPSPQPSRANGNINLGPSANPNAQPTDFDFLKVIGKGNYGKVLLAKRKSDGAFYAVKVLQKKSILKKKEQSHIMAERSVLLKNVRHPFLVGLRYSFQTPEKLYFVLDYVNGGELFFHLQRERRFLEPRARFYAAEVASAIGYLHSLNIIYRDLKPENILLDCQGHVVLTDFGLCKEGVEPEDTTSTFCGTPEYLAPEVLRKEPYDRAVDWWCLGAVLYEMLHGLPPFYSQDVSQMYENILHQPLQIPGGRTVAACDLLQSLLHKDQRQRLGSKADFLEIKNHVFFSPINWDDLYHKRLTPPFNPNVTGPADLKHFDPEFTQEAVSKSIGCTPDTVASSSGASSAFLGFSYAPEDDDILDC
T11 sequence (Q14680 whole entry): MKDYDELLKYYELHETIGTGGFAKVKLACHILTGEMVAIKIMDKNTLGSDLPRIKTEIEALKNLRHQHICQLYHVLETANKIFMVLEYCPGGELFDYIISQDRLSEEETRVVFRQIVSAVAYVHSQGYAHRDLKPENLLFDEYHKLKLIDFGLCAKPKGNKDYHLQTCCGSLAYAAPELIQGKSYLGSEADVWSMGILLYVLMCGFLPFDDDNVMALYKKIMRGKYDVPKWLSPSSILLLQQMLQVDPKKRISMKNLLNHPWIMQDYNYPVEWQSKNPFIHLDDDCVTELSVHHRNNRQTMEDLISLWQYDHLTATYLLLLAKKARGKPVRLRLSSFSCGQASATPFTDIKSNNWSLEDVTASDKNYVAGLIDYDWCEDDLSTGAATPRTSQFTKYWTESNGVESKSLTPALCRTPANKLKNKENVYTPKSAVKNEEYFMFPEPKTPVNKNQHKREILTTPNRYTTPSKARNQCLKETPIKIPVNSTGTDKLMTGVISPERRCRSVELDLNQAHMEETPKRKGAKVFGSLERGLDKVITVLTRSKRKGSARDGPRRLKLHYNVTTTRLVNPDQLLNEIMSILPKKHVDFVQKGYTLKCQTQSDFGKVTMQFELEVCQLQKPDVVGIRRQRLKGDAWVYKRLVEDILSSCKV
T6 sequence (P51451 whole entry): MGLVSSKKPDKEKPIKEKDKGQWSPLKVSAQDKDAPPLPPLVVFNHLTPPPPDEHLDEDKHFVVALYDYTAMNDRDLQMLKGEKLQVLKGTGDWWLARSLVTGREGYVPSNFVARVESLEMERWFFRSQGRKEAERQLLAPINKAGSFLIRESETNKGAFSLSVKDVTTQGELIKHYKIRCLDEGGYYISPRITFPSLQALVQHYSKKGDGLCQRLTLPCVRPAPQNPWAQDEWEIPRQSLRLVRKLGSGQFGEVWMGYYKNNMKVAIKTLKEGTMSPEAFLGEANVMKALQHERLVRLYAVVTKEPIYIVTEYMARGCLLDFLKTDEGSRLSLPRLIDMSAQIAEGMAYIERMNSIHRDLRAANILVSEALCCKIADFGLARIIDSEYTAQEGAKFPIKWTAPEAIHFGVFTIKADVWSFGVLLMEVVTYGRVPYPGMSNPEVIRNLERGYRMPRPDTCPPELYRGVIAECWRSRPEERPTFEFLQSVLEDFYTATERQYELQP
T4 sequence (P51957 whole entry): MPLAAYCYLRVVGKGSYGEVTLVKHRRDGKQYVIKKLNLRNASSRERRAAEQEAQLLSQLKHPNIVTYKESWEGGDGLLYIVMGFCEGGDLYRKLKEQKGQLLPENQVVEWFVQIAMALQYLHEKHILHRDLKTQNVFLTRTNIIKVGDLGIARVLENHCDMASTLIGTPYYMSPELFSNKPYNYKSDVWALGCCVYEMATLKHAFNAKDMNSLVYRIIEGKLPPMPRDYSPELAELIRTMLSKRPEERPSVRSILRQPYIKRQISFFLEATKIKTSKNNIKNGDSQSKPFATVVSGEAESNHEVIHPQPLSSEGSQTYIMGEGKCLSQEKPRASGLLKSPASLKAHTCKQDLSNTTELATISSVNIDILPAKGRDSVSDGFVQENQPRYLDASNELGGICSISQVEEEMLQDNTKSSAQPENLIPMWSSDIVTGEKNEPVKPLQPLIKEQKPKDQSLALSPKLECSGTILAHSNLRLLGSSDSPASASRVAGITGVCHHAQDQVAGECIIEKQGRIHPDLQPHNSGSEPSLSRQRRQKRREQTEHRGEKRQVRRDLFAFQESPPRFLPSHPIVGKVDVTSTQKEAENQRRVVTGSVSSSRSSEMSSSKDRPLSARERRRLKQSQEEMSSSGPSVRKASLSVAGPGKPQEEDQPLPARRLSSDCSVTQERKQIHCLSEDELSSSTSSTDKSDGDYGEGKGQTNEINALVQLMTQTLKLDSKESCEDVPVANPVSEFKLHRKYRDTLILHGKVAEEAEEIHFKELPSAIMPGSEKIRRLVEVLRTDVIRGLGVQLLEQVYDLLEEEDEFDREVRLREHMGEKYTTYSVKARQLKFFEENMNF
T3 sequence (Q16513 whole entry): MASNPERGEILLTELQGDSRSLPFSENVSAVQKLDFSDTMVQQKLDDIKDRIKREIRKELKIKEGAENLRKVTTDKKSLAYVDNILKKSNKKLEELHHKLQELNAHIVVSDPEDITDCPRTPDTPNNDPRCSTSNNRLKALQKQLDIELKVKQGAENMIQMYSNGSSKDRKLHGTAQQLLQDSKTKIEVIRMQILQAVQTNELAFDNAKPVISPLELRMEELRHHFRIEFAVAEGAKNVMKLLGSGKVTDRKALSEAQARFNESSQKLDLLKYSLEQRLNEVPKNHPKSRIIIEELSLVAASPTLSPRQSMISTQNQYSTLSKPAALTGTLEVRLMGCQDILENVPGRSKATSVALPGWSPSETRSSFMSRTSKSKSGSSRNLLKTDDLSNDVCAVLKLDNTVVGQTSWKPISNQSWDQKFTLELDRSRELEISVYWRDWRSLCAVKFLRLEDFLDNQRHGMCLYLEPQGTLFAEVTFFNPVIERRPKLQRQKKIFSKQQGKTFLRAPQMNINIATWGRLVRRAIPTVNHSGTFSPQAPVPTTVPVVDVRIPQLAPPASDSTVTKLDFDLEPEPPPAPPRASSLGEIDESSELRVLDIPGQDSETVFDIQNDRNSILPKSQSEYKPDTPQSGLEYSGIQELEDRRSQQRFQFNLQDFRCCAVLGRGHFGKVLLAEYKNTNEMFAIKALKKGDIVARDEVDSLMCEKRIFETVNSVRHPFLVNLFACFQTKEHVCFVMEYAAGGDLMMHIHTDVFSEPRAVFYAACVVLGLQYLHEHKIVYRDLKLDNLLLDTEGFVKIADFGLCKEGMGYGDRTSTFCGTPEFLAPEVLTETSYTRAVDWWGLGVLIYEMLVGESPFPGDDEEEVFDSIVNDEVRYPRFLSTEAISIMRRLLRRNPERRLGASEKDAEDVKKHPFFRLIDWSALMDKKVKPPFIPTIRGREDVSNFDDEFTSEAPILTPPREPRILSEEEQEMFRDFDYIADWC
T12 sequence (P28482 whole entry): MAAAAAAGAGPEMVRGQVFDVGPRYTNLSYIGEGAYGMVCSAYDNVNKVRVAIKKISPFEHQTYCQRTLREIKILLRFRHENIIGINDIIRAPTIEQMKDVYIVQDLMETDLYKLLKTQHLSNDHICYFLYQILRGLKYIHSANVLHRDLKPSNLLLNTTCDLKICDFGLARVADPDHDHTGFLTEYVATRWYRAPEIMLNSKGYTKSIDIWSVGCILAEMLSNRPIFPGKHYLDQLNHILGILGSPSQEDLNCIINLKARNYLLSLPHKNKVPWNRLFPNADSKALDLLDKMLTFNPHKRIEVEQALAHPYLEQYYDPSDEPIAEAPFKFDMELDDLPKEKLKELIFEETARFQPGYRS
T5 sequence (P49137 whole entry): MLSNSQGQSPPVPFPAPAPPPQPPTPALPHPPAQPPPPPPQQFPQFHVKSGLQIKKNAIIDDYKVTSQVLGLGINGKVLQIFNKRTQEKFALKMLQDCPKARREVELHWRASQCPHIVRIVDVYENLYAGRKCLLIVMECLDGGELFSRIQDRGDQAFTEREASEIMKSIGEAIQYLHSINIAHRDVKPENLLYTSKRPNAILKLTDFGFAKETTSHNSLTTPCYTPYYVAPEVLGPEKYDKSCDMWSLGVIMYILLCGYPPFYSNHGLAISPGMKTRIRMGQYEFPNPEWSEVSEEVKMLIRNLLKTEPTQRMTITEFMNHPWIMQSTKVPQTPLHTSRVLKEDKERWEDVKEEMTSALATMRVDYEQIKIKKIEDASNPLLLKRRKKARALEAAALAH

SMILES | remaining activity at 5 µM [1] | remaining activity at 5 µM [2] | remaining activity at 5 µM [4] | remaining activity at 5 µM [5] | remaining activity at 5 µM [6] | remaining activity at 5 µM [7] | remaining activity at 5 µM [8] | remaining activity at 5 µM [9] | remaining activity at 5 µM [10] | remaining activity at 5 µM [11] | remaining activity at 5 µM [12] | remaining activity at 5 µM [13] | further results
Cc1sc(C(=O)NC2COC2)cc1-n1cc(NC(=O)Nc2c(F)cccc2Cl)cn1 [Compound 27, 4-(4-(3-(2-chloro-6-fluorophenyl)ureido)-1H-pyrazol-1-yl)-5-methyl-N-(oxetan-3-yl)thiophene-2-carboxamide] | – | – | – | – | – | – | – | – | – | – | – | – | remaining activity at 10 µM ([1]; 10 uM): 102%; remaining activity at 10 µM ([2]; 10 uM): 93%; remaining activity at 10 µM ([3]; read-out: % Enzyme Activity (relative to DMSO controls), kinase PKN2/PRK2, 10 uM): 87.1%; remaining activity at 10 µM ([4]; 10 uM): 75.5%; remaining activity at 10 µM ([5]; 10 uM): 93.6%; remaining activity at 10 µM ([6]; 10 uM): 112%; remaining activity at 10 µM ([7]; 10 uM): 108%; remaining activity at 10 µM ([8]; 10 uM): 86.4%; remaining activity at 10 µM ([9]; 10 uM): 99.8%; remaining activity at 10 µM ([10]; 10 uM): 97.2%; remaining activity at 10 µM ([11]; 10 uM): 103%; remaining activity at 10 µM ([12]; 10 uM): 90.8%; remaining activity at 10 µM ([13]; 10 uM): 88.5%
O=C(Nc1cnn(-c2csc(C(=O)NC3COC3)c2)c1)Nc1c(F)cccc1Cl [Compound 25, 4-(4-(3-(2-chloro-6-fluorophenyl)ureido)-1H-pyrazol-1-yl)-N-(oxetan-3-yl)thiophene-2-carboxamide] | 93.2% | 133% | 90.8% | 99.8% | 96.1% | 97.9% | 94.4% | 90.3% | 88.6% | 61.4% | 85.9% | 90.3% | remaining activity at 5 µM ([3]; kinase PKN2/PRK2, read-out: % Enzyme Activity (relative to DMSO controls)): 105%
O=C(Nc1cnn(-c2csc(C(=O)NC3COC3)c2)c1)Nc1ccccc1Cl [Compound 17, 4-(4-(3-(2-chlorophenyl)ureido)-1H-pyrazol-1-yl)-N-(oxetan-3-yl)thiophene-2-carboxamide] | 66% | 113% | 109% | 97.1% | 79.2% | 108% | 96.4% | 97.8% | 101% | 48.7% | 110% | 104% | remaining activity at 5 µM ([3]; read-out: % Enzyme Activity (relative to DMSO controls), kinase PKN2/PRK2): 112%
